Assay results from patent publication US20130209515A1, “ANTI-INFECTIVE AND IMMUNOMODULATORY COMPOUNDS” (priority 2005, published 2013).

Tested on: mouse genes
Experiment: Whole genome expression in blood of mice after 2AA (Affymetrix GeneChip)
Assay type: in vivo
Conditions: for Fold Change X14607 Lipocalin 2 / Fold Change AF220015 Rpt-1; regulatory protein, T lymphocyte 1 / Fold Change AF237910 Membrane-spanning 4-domains, subfamily A / Fold Change AI323359 Csfmr, colony stimulating factor IR, regulator of myeloid cell proliferation / Fold Change AI462015 Nuclear factor of kappa light chain gene enhancer in B-cells inhibitor, alpha / Fold Change AI648846 Solute carrier family 6 / Fold Change AV026617 FBJ osteosarcoma oncogene / Fold Change AV229143 Interferon activated gene (202A) / Fold Change AV318494 Myeloid cell leukemia sequence 1 / Fold Change BB193024 Interferon-induced transmembrane protein-2 / Fold Change BB241535 Suppressor of cytokine signaling 3 / Fold Change BB769628 Colony stimulating factor 2 receptor, beta 1 / Fold Change BB784999 Triggering receptor expressed on myeloid cells 1 / Fold Change BB831725 Suppressor of cytokine signaling 3 / Fold Change BC003839 Myeloid cell leukemia sequence 1 (Mcl1) / Fold Change BC010291 Interferon-inducible protein (Cd225) / Fold Change BC011092 Chemokine (C-C) receptor 1 / Fold Change BC011437 IL-1β / Fold Change BC012653 Chemokine (C-X3-C) receptor 1 / Fold Change BC021916 EMAPI, cytokine activity / Fold Change BC022943 Lymphocyte cytosolic protein 1 / Fold Change BE285634 Interleukin-1 receptor accessory protein / Fold Change NM_008039 Receptor activity [formyl peptide receptor, related sequence 2] (Fpr-rs2) / Fold Change NM_008677 p40phox; intracellular signaling cascade neutrophil cytosolic factor 4 (Ncf4) / Fold Change NM_008879 Pls2, L-fimbrin, calcium ion binding lymphocyte cytosolic proteing 1 (Lep 1) / Fold Change NM_009883 Nuclear factor induced by IL-6 (NF-IL6) / Fold Change NM_011087 Paired-Ig-like receptor A1 (Piral) / Fold Change NM_011313 Cacy; calcium binding protein A6 (calcyclin)cyclin-dependent protein kinase / Fold Change NM_011315 Saa-3 lipid transported activity acute phase response / Fold Change NM_011355 PU.1, transcription factor complex cell growth and/or maintenance / Fold Change NM_011940 Interferon-activatable protein (Ifi202) / Fold Change NM_011999 DCIR; C-type (calcium dependent, carbohydrate recognition domain) lectin / Fold Change NM_030691 Integral to membrane immunoglobulin superfamily, member 6 (Igsf6) / Fold Change NM_030694 Interferon-induced transmembrane protein-3 / Fold Change U05264 Glycoprotein 49B (Gp49b) / Fold Change U72644 Leukocyte specific transcript 1: blood
Procedure: To identify how 2AA pre-exposure promotes host defense to better protect against P. aeruginosa infection, we carried out whole genome gene expression studies of mice for several experimental conditions using the mouse full-thickness skin thermal injury infection model, including naïve; BI alone; 2AA treatment alone; 2AA pretreatment plus BI. The mice were injected IP, as we were not yet aware of the improved benefit obtained with IV delivery. Whole blood was collected after 0, 6, 24, 96 and 192 hr post 2AA injection. Also, pretreated BI mice were exposed to 2AA at 1 and 4 days pre-BI, with blood samples collected 24 hr post-BI. The transcriptome profiles were then determined and compared, and genes with statistically significant differences in their expression levels between the samples were further analyzed by pair-wise comparison (see experimental design, section 2.2).
In experiments to determine if T-aminoacetophenone acts as an immunomodulator, eight 6-week old CD-1 male mice were treated intraperitonialy with 500 μl of a 20 mM solution of T-aminoacetophenone in 0.9% NaCl (aq). A control group of mice was administered only 0.9% NaCl. Blood was withdrawn from the mice at time points of 6 hours, 24 hours, 96 hours, and 192 hours, and RNA was extracted from each blood sample.
Mouse GeneChip™ arrays, manufactured by Affymetrix (Santa Clara, Calif.), were used to compare the profile of gene expression in the blood samples of mice. The biotin-labeled cRNA used to hybridize to the GeneChips was prepared from the RNA extracted from the blood samples according to the Affymetrix GeneChip Expression Analysis Technical Manual (Research Genetics, Huntsville, Ala.).
The expression profiles from treated and untreated mice were compared and an additional constraint of a minimum expression ratio of 1 was applied to control false positives to 5%. The gene list was clustered and the genes showing upregulation at any of the time points considered were selected. […] Most of the genes listed in the table function in immune response or host-pathogen interaction. The table includes several cytokines and their receptors, genes involved in immune cell proliferation, and calcium-binding proteins that have a role in downstream signaling.

Structure (SMILES): CC(=O)c1ccccc1N [2AA, 2′-aminoacetophenone]
- Fold Change X14607 Lipocalin 2 (24 h after IP 2AA): 0.2 fold
- Fold Change AF220015 Rpt-1; regulatory protein, T lymphocyte 1 (96 h after IP 2AA): 0.5 fold
- Fold Change AF237910 Membrane-spanning 4-domains, subfamily A (96 h after IP 2AA): 0.0 fold
- Fold Change AI323359 Csfmr, colony stimulating factor IR, regulator of myeloid cell proliferation (96 h after IP 2AA): 0.0 fold
- Fold Change AI462015 Nuclear factor of kappa light chain gene enhancer in B-cells inhibitor, alpha (96 h after IP 2AA): 0.4 fold
- Fold Change AI648846 Solute carrier family 6 (96 h after IP 2AA): 3.7 fold
- Fold Change AV026617 FBJ osteosarcoma oncogene (96 h after IP 2AA): 0.0 fold
- Fold Change AV229143 Interferon activated gene (202A) (96 h after IP 2AA): 6.8 fold
- Fold Change AV318494 Myeloid cell leukemia sequence 1 (96 h after IP 2AA): 0.3 fold
- Fold Change BB193024 Interferon-induced transmembrane protein-2 (96 h after IP 2AA): 0.1 fold
- Fold Change BB241535 Suppressor of cytokine signaling 3 (96 h after IP 2AA): 0.3 fold
- Fold Change BB769628 Colony stimulating factor 2 receptor, beta 1 (96 h after IP 2AA): 3.2 fold
- Fold Change BB784999 Triggering receptor expressed on myeloid cells 1 (96 h after IP 2AA): 4.6 fold
- Fold Change BB831725 Suppressor of cytokine signaling 3 (96 h after IP 2AA): 2.0 fold
- Fold Change BC003839 Myeloid cell leukemia sequence 1 (Mcl1) (96 h after IP 2AA): −0.4 fold
- Fold Change BC010291 Interferon-inducible protein (Cd225) (96 h after IP 2AA): −0.3 fold
- Fold Change BC011092 Chemokine (C-C) receptor 1 (96 h after IP 2AA): −0.7 fold
- Fold Change BC011437 IL-1β (96 h after IP 2AA): 0.2 fold
- Fold Change BC012653 Chemokine (C-X3-C) receptor 1 (96 h after IP 2AA): 0.0 fold
- Fold Change BC021916 EMAPI, cytokine activity (96 h after IP 2AA): −0.3 fold
- Fold Change BC022943 Lymphocyte cytosolic protein 1 (96 h after IP 2AA): −0.4 fold
- Fold Change BE285634 Interleukin-1 receptor accessory protein (96 h after IP 2AA): −1.1 fold
- Fold Change NM_008039 Receptor activity [formyl peptide receptor, related sequence 2] (Fpr-rs2) (96 h after IP 2AA): 0.2 fold
- Fold Change NM_008677 p40phox; intracellular signaling cascade neutrophil cytosolic factor 4 (Ncf4) (96 h after IP 2AA): 0.0 fold
- Fold Change NM_008879 Pls2, L-fimbrin, calcium ion binding lymphocyte cytosolic proteing 1 (Lep 1) (96 h after IP 2AA): 0.0 fold
- Fold Change NM_009883 Nuclear factor induced by IL-6 (NF-IL6) (96 h after IP 2AA): −0.1 fold
- Fold Change NM_011087 Paired-Ig-like receptor A1 (Piral) (96 h after IP 2AA): 0.2 fold
- Fold Change NM_011313 Cacy; calcium binding protein A6 (calcyclin)cyclin-dependent protein kinase (96 h after IP 2AA): 0.5 fold
- Fold Change NM_011315 Saa-3 lipid transported activity acute phase response (96 h after IP 2AA): 1.5 fold
- Fold Change NM_011355 PU.1, transcription factor complex cell growth and/or maintenance (96 h after IP 2AA): 9.2 fold
- Fold Change NM_011940 Interferon-activatable protein (Ifi202) (96 h after IP 2AA): 9.4 fold
- Fold Change NM_011999 DCIR; C-type (calcium dependent, carbohydrate recognition domain) lectin (96 h after IP 2AA): 5.3 fold
- Fold Change NM_030691 Integral to membrane immunoglobulin superfamily, member 6 (Igsf6) (96 h after IP 2AA): 0.0 fold
- Fold Change NM_030694 Interferon-induced transmembrane protein-3 (96 h after IP 2AA): 0.2 fold
- Fold Change U05264 Glycoprotein 49B (Gp49b) (96 h after IP 2AA): 0.6 fold
- Fold Change U72644 Leukocyte specific transcript 1 (96 h after IP 2AA): −0.2 fold
- Fold Change X14607 Lipocalin 2 (96 h after IP 2AA): 0.2 fold
- Fold Change AF220015 Rpt-1; regulatory protein, T lymphocyte 1 (192 h after IP 2AA): 0.6 fold
- Fold Change AF237910 Membrane-spanning 4-domains, subfamily A (192 h after IP 2AA): 0.5 fold
- Fold Change AI323359 Csfmr, colony stimulating factor IR, regulator of myeloid cell proliferation (192 h after IP 2AA): 0.3 fold
- Fold Change AI462015 Nuclear factor of kappa light chain gene enhancer in B-cells inhibitor, alpha (192 h after IP 2AA): 0.7 fold
- Fold Change AI648846 Solute carrier family 6 (192 h after IP 2AA): 7.8 fold
- Fold Change AV026617 FBJ osteosarcoma oncogene (192 h after IP 2AA): 10.5 fold
- Fold Change AV229143 Interferon activated gene (202A) (192 h after IP 2AA): 6.2 fold
- Fold Change AV318494 Myeloid cell leukemia sequence 1 (192 h after IP 2AA): 1.2 fold
- Fold Change BB193024 Interferon-induced transmembrane protein-2 (192 h after IP 2AA): 0.3 fold
- Fold Change BB241535 Suppressor of cytokine signaling 3 (192 h after IP 2AA): 1.0 fold
- Fold Change BB769628 Colony stimulating factor 2 receptor, beta 1 (192 h after IP 2AA): 5.2 fold
- Fold Change BB784999 Triggering receptor expressed on myeloid cells 1 (192 h after IP 2AA): 0.0 fold
- Fold Change BB831725 Suppressor of cytokine signaling 3 (192 h after IP 2AA): 5.9 fold
- Fold Change BC003839 Myeloid cell leukemia sequence 1 (Mcl1) (192 h after IP 2AA): 0.1 fold
- Fold Change BC010291 Interferon-inducible protein (Cd225) (192 h after IP 2AA): −0.3 fold
- Fold Change BC011092 Chemokine (C-C) receptor 1 (192 h after IP 2AA): −0.3 fold
- Fold Change BC011437 IL-1β (192 h after IP 2AA): 0.6 fold
- Fold Change BC012653 Chemokine (C-X3-C) receptor 1 (192 h after IP 2AA): 0.0 fold
- Fold Change BC021916 EMAPI, cytokine activity (192 h after IP 2AA): −0.2 fold
- Fold Change BC022943 Lymphocyte cytosolic protein 1 (192 h after IP 2AA): −0.1 fold
- Fold Change BE285634 Interleukin-1 receptor accessory protein (192 h after IP 2AA): −0.2 fold
- Fold Change NM_008039 Receptor activity [formyl peptide receptor, related sequence 2] (Fpr-rs2) (192 h after IP 2AA): 0.2 fold
- Fold Change NM_008677 p40phox; intracellular signaling cascade neutrophil cytosolic factor 4 (Ncf4) (192 h after IP 2AA): 0.1 fold
- Fold Change NM_008879 Pls2, L-fimbrin, calcium ion binding lymphocyte cytosolic proteing 1 (Lep 1) (192 h after IP 2AA): 0.0 fold
- Fold Change NM_009883 Nuclear factor induced by IL-6 (NF-IL6) (192 h after IP 2AA): −0.1 fold
- Fold Change NM_011087 Paired-Ig-like receptor A1 (Piral) (192 h after IP 2AA): 0.1 fold
- Fold Change NM_011313 Cacy; calcium binding protein A6 (calcyclin)cyclin-dependent protein kinase (192 h after IP 2AA): 1.4 fold
- Fold Change NM_011315 Saa-3 lipid transported activity acute phase response (192 h after IP 2AA): −0.2 fold
- Fold Change NM_011355 PU.1, transcription factor complex cell growth and/or maintenance (192 h after IP 2AA): 6.0 fold
- Fold Change NM_011940 Interferon-activatable protein (Ifi202) (192 h after IP 2AA): 9.1 fold
- Fold Change NM_011999 DCIR; C-type (calcium dependent, carbohydrate recognition domain) lectin (192 h after IP 2AA): 9.6 fold
- Fold Change NM_030691 Integral to membrane immunoglobulin superfamily, member 6 (Igsf6) (192 h after IP 2AA): 5.6 fold
- Fold Change NM_030694 Interferon-induced transmembrane protein-3 (192 h after IP 2AA): 0.6 fold
- Fold Change U05264 Glycoprotein 49B (Gp49b) (192 h after IP 2AA): 0.9 fold
- Fold Change U72644 Leukocyte specific transcript 1 (192 h after IP 2AA): 0.1 fold
- Fold Change X14607 Lipocalin 2 (192 h after IP 2AA): 0.2 fold
- genes with >2× expression differences at least at one point vs control mice (IP 2AA, blood 0, 6, 24, 96, 192 hr): 835 genes
- genes involved in the P38 MAPK pathway induced (post-2AA treatment): 7/8
